Earlier results as cited in US4894388A, “Glycosidase inhibitors and use thereof” (priority 1988, dated 1990).

System: human immunodeficiency virus (HIV)
Settings: background literature; cited from earlier work

Row | SMILES | inhibition of HIV synctium formation and virus replication (in words)
1 | O[C@H]1[C@H](O)[C@@H](O)CN2CC[C@H](O)[C@H]12 [castanospermine] | found to inhibit human immunodeficiency virus (HIV) synctium formation and virus replication
2 | OCC1NC(CO)C(O)C1O (stereo not drawn) [2,5-dihydroxymethyl-3,4-dihydroxypyrrolidine] | found to inhibit human immunodeficiency virus (HIV) synctium formation and virus replication
3 | OC[C@H]1NC[C@H](O)[C@@H](O)[C@@H]1O [1-deoxynojirimycin (DNJ), 1-deoxynojirimycin] | found to inhibit human immunodeficiency virus (HIV) synctium formation and virus replication
